According to article PMC11650360 (Archiv Der Pharmazie, 2024):

What was measured:
VchCAβ = VchCAβ (Vibrio cholerae, UniProt Q9KUD6); assay: biochemical
VchCAα = VchCAα (Vibrio cholerae, UniProt Q9KMP6); assay: stopped-flow CO2 hydrase assay; format: biochemical
VchCAα, sequence (Q9KMP6 21-239): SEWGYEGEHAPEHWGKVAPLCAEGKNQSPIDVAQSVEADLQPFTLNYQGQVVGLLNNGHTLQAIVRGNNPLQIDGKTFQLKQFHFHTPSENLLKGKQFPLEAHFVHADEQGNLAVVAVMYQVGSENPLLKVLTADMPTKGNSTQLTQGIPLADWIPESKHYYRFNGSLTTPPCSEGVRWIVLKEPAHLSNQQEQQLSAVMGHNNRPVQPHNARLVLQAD

VchCAβ, sequence (Q9KUD6 1-222): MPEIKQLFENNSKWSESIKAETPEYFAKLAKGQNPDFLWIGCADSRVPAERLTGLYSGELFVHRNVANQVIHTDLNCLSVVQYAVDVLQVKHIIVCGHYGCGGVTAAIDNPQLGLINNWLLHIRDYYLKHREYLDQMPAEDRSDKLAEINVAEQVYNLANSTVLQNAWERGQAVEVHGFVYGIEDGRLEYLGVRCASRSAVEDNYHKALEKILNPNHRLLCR

SMILES | Ki (VchCAβ) [µM] | Ki (VchCAα) [µM]
NS(=O)(=O)CCCn1cc(CNC(=O)Nc2ccc(F)cc2)nn1 [compound 5, 5] | 0.93 | 13.4
NS(=O)(=O)CCCCn1cc(COc2ccccc2)nn1 [compound 14, 14] | 6.91 | 34.4
NS(=O)(=O)CCCCn1cc(CNC(=O)Nc2ccc(F)cc2)nn1 [compound 18, 18] | 3.41 | 16.9
Cc1ccc(NC(=O)NCc2cn(CCCCS(N)(=O)=O)nn2)cc1 [compound 19, 19] | 2.86 | 18.3
COc1cccc(NC(=O)NCc2cn(CCCCS(N)(=O)=O)nn2)c1 [compound 22, 22] | 1.97 | 14
COc1ccc(OCc2cn(CCCS(N)(=O)=O)nn2)cc1 [compound 3, 3] | 2.96 | 16.5
Cc1ccc(NC(=O)NCc2cn(CCCS(N)(=O)=O)nn2)cc1 [compound 6, 6] | 0.82 | 
NS(=O)(=O)CCCn1cc(COc2ccccc2)nn1 [compound 1, 1] | 4.16 | 29.1
COc1cccc(NC(=O)NCc2cn(CCCS(N)(=O)=O)nn2)c1 [compound 9, 9] | 1.72 | 17.5
NS(=O)(=O)CCCCn1cc(CNC(=O)Nc2ccc(C(F)(F)F)cc2)nn1 [compound 20, 20] | 3 | 16.8
COc1ccc(OCc2cn(CCCCS(N)(=O)=O)nn2)cc1 [compound 16, 16] | 6.13 | 28.7
NS(=O)(=O)CCCn1cc(CNC(=O)Nc2ccc(C(F)(F)F)cc2)nn1 [compound 7, 7] | 0.67 | 11.2
